In patent US6603023B2 (priority 1996, dated 2003):
Where two headings read alike, the source gives them in different places.

Assays:
MCF-7/Adr = assay: cells; format: cell-based, human; settings: Homo sapiens, NCI/ADR-RES, 72 h
Outline: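 Sulforhodamine B readout: TCA-fixed cultures stained 30 min with 0.4% SRB, bound dye extracted in unbuffered Tris and read at 570 nm. Duplicate experiments, six to seven drug concentrations per run.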

murine leukemic P388/0 = assay: XTT cytotoxicity, P388/0; format: cell-based; settings: Mus musculus, P388, 72 h
Outline: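 Leukemia cells (CCRF-CEM, P388/0 and drug-resistant sublines kept under selecting agent) grew in RPMI-1640 with 10% FBS at 37 °C, 5% CO2, seeded at 5×10^4 cells/mL. After 72 h drug exposure, viability was read by XTT with 0.025 mM PMS-XTT, 4 h at 37 °C, absorbance 450/630 nm.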

[1] = test system: A549 Human Lung Carcinoma; assay: A549 xenograft; format: in vivo, nude mice; settings: for Average Tumor Size, Day 11: control 96; for Average Tumor Size, Day 13: control 128; for Average Tumor Size, Day 15: control 306; for Average Tumor Size, Day 17: control 553; for Average Body Weight, Day 7: initial weight
[2] = test system: human mammary carcinoma MX-1 xenograft; set-up: Toxicity toward Nude Mice: key to the marks not given beside the values; settings: for Average Body Weight, Day 7: initial weight, first treatment day
Description: DMSO was used as a vehicle for epothilones. Each mouse received ≦40 μL DMSO in all experiments.
Athymic nude mice (nu/nu) were used for MX-1 and MCF-7/Adr human mammary carcinoma xenografts. Mice were obtained from Taconic Laboratory Animals and Service (Germantown, N.Y.: outbred, Swiss background).

B16 Melanoma = format: in vivo, B6D2F1 mice; settings: B6D2F1, mouse, in vivo
Description: Body weight was determined at 0, 2, 4, 6, 8, 10 and 12 days. […] Injections were started on day 1. […] Body weight was determined at 0, 2, 4, 6, 8, 10 and 12 days. […] Injections were started on day 1.

[3] = A549 Lung, dEpoB 40 mg/kg Q2D x 3, Taxol 15 mg/kg Q2D x 3
[4] = Q2D x 3, 6 hr i.v. infusion: dEpoB 40, Taxol 24 mg/kg
[5] = Q2D x 3: dEpoB 30 mg/kg 18 hr i.v. infusion, Taxol 15 mg/kg 6 hr infusion, VBL 2 and VP-16 25 mg/kg i.v. inj
[6] = Taxol 5 mg/kg on day 8-16 and 18-26, n = 10
[7] = Taxol 24 mg/kg, 6 hr i.v. infusion Q2D x 5 (day 8-16)
[8] = dEpo B 30, Taxol 15 mg/kg, 6 hr i.v. infusion Q2D x 5 (day 8-16), TD: Tumor disappearance
[9] = extended experiment, Desoxyepo B 40, Taxol 5 mg/kg i.p. Q2D day 8-16 and 18-26
[10] = high doses: dEpoB 25, EpoB 0.6, Taxol 10, Vinblastine 0.4 mg/kg i.p. Q2D from day 7
[11] = low doses: dEpoB 15, EpoB 0.3, Taxol 5, Vinblastine 0.2 mg/kg i.p. Q2D day 7-15
[12] = male, athymic nude (nu/nu), outbred, Swiss background, mouse, in vivo

CC(=O)O[C@H]1C(=O)[C@@]2(C)[C@H]([C@H](OC(=O)c3ccccc3)[C@]3(O)C[C@H](OC(=O)[C@H](O)[C@@H](NC(=O)c4ccccc4)c4ccccc4)C(C)=C1C3(C)C)[C@]1(OC(C)=O)CO[C@@H]1C[C@@H]2O [Taxol ®, paclitaxel]
IC50 (MCF-7/Adr): 150 nM | IC50 (murine leukemic P388/0): 2.9 nM | Lowest Average Tumor Size (T/C) [1, 3]: 0.01 T/C | Tumor Disappearance [1, 3]: 2/4 | Average Body Weight (change), Day 11 [1, 4]: -2.1 g | Average Body Weight (change), Day 13 [1, 4]: -2.7 g | Average Body Weight (change), Day 15 [1, 4]: -0.9 g | Tumor Disappearance [1, 4]: 4/4 | Average Tumor Size, Day 11 [1, 4]: 14 mm^3 | Average Tumor Size, Day 13 [1, 4]: 8 mm^3 | Average Tumor Size, Day 15 [1, 4]: 0 mm^3 | Average Tumor Size, Day 17 [1, 4]: 0 mm^3 | Average Body Weight (change), Day 11 [1, 5]: -1.2 g | Average Body Weight (change), Day 13 [1, 5]: -0.8 g | Average Body Weight (change), Day 15 [1, 5]: +0.5 g | Tumor Disappearance [1, 5]: 2/4 | Average Tumor Size, Day 11 [1, 5]: 49 mm^3 | Average Tumor Size, Day 13 [1, 5]: 32 mm^3 | Average Tumor Size, Day 15 [1, 5]: 7 mm^3 | Average Tumor Size, Day 17 [1, 5]: 6 mm^3 | Average Body Weight, Day 7 [1, 4]: 28.5 g | Average Body Weight, Day 7 [1, 5]: 27.6 g | Average Body Weight Change ([2]; 5 mg/kg i.p. Q2Dx5 from day 7, day 11): -0.1 g | Average Body Weight Change ([2]; 5 mg/kg i.p. Q2Dx5 from day 7, day 13): +0.4 g | Average Body Weight Change ([2]; 5 mg/kg i.p. Q2Dx5 from day 7, day 15): +1.1 g | Average Body Weight Change ([2]; 5 mg/kg i.p. Q2Dx5 from day 7, day 17): +1.2 g | Tumor Disapp. ([2]; 5 mg/kg i.p. Q2Dx5 from day 9): 0/6 | Average Body Weight Change ([2]; 5 mg/kg i.p. Q2Dx5 from day 9, day 13): -1.1 g | Average Body Weight Change ([2]; 5 mg/kg i.p. Q2Dx5 from day 9, day 15): -2.0 g | Average Body Weight Change ([2]; 5 mg/kg i.p. Q2Dx5 from day 9, day 17): -1.0 g | Average Body Weight Change ([2]; 5 mg/kg i.p. Q2Dx5 from day 9, day 19): -0.2 g | Tumor Disappearance ([2]; 5 mg/kg i.p. d8,10,12,14,16): 2/10 | Tumor Disappearance ([2]; 5 mg/kg i.p. d18-26, extended after d8-16, day 20): 0/10^ | Tumor Disappearance ([2]; 5 mg/kg i.p. d18-26, extended after d8-16, day 22): 0/10 | Tumor Disappearance ([2]; 5 mg/kg i.p. d18-26, extended after d8-16, day 24): 0/10 | Tumor Disappearance ([2]; 5 mg/kg i.p. d18-26, extended after d8-16, day 26): 0/10 | Tumor Disappearance ([2]; 5 mg/kg i.p. d18-26, extended after d8-16, day 28): 0/10 | Average Body Weight Change ([2]; 10 mg/kg i.p. Q2Dx5 from day 7, day 11): -2.7 g | Average Body Weight Change ([2]; 10 mg/kg i.p. Q2Dx5 from day 7, day 13): -1.1 g | Average Body Weight Change ([2]; 10 mg/kg i.p. Q2Dx5 from day 7, day 15): -0.3 g | Average Body Weight Change ([2]; 10 mg/kg i.p. Q2Dx5 from day 7, day 17): +2.2 g | Tumor Disappearance ([2]; 10 mg/kg i.p. d8,10,12,14,16): 2/6 | tumor reappeared on day ([2]; 10 mg/kg, no extended test): Reappeared on day 38 | Tumor Disappearance ([2]; 10 mg/kg, no extended test, day 16): 1/6 on day 16 | Lowest Average Tumor Size (T/C) ([2]; MX-1, dEpoB 30 mg/kg Q2D x 6, Taxol 15 mg/kg Q2D x 6): 0 T/C | tumor volume reduction ([2]; Taxol 5 mg/kg i.p. Q2Dx5 from day 8): 53% | Tumor Size (group average), Day 8 [2, 6]: 17 mm^3 | Tumor Size (group average), Day 10 [2, 6]: 45 mm^3 | Tumor Size (group average), Day 12 [2, 6]: 54 mm^3 | Tumor Size (group average), Day 14 [2, 6]: 128 mm^3 | Tumor Size (group average), Day 16 [2, 6]: 311 mm^3 | Tumor Size (group average), Day 18 [2, 6]: 596 mm^3 | Tumor Size (group average), Day 20 [2, 6]: 1114 mm^3 | Tumor Size (group average), Day 22 [2, 6]: 1930 mm^3 | Tumor Size (group average), Day 24 [2, 6]: 2285 mm^3 | Tumor reappearance (Reappear on day) ([2]; Taxol 10 mg/kg, no extended test): Reappear on day 38 | Tumor Disappearance ([2]; Taxol 10 mg/kg, on day 16, no extended test): 1/6 on day 16, | Tumor Disapp. ([2]; Taxol 15 mg/kg i.v. Q2Dx5 from day 9): 2/6 | Average Body Weight (change), Day 14 [2, 7]: -4.8 g | Average Body Weight (change), Day 16 [2, 7]: -5.3 g | Average Body Weight (change), Day 18 [2, 7]: -6.0 g | Average Body Weight (change), Day 20 [2, 7]: -6.2 g | Tumor Disappearance [2, 7]: 4/4 | Average Tumor Size (T/C), Day 14 ([2]; Taxol 24 mg/kg, 6 hr i.v. infusion Q2D x 5 (day 8-16), TD: Tumor disappearance): 0.03 T/C | Tumor Disappearance ([2]; dEpo B 30, Taxol 15 mg/kg, 6 hr i.v. infusion Q2D x 5 (day 8-16)): 4/4 | Average Tumor Size (T/C), Day 14 [2, 8]: 0.06 T/C | Average Tumor Size (T/C), Day 16 [2, 8]: 0.01 T/C | Average Body Weight Change, Day 20 [2, 9]: -1.6 g | Average Body Weight Change, Day 22 [2, 9]: -0.3 g | Average Body Weight Change, Day 24 [2, 9]: +0.1 g | Average Body Weight Change, Day 26 [2, 9]: -0.6 g | Average Body Weight Change, Day 28 [2, 9]: -0.4 g | Tumor Disappearance, Day 20 [2, 9]: 0/10 | Tumor Disappearance, Day 22 [2, 9]: 0/10 | Tumor Disappearance, Day 24 [2, 9]: 0/10 | Tumor Disappearance, Day 26 [2, 9]: 0/10 | Tumor Disappearance, Day 28 [2, 9]: 0/10 | Average Tumor Volume (T/C), Day 11 [2, 10]: 0.43 T/C | Average Tumor Volume (T/C), Day 13 [2, 10]: 0.37 T/C | Average Tumor Volume (T/C), Day 15 [2, 10]: 0.12 T/C | Average Tumor Volume (T/C), Day 17 [2, 10]: 0.11 T/C | Average Body Weight, Day 7 [2, 10]: 27.6 g | Average Body Weight, Day 7 [2, 11]: 26.9 g | Average Tumor Volume (T/C), Day 11 [2, 11]: 0.54 T/C | Average Tumor Volume (T/C), Day 13 [2, 11]: 0.46 T/C | Average Tumor Volume (T/C), Day 15 [2, 11]: 0.40 T/C | Average Tumor Volume (T/C), Day 17 [2, 11]: 0.45 T/C | # Mice Died ([2]; male, athymic nude (nu/nu), mouse, in vivo): 0/10 | # Died of toxicity [2, 12]: 2/10 | # Mice Died [2, 12]: 1/6 | lethality [2, 12]: 2/6 | lethality (mice died of toxicity) [2, 12]: 2/10 | mice died of toxicity [2, 12]: 2 out of 10 | Tumor Disappearance ([2]; mouse, in vivo): 5/5 | mice died of toxicity ([2]; mouse, in vivo): four out of seven | Toxicity toward Nude Mice ([2]; mouse, in vivo, ip, 15 mg/kg): ++++ | Toxicity toward Nude Mice ([2]; mouse, in vivo, ip, 35 mg/kg): ++ | Toxicity toward Nude Mice ([2]; mouse, in vivo, iv, 15 mg/kg): ++ | Toxicity toward Nude Mice ([2]; mouse, in vivo, iv, 24 mg/kg): ++ | Toxicity toward Nude Mice ([2]; mouse, in vivo, iv, 30 mg/kg): ++ | reduction in tumor volume ([2]; paclitaxel 5 mg/kg): 55% | average tumor size on day 24 ([2]; paclitaxel 5 mg/kg Q2Dx5 i.p. d8-16 and d18-26, n=10): 2285±97 mm^3 | tumor reduction ([2]; paclitaxel 10 mg/kg): 89% | # Mice Died (B16 Melanoma): 0/8
